Measured values published in US4634712A, “Antihypertensive esters of 1,4-dihydro-2,6-dimethyl-3-(alkoxycarbonyl or alkoxyalkoxycarbonyl)-4-(substituted phenyl)-pyridine-5-carboxylic acid” (Recordati S.A., priority 1984, dated 1987).

How the values were obtained:
[1] = tested on: male hypertensive rats (SHR, Wister-Kyoto strain); test: Antihypertensive activity in male hypertensive rats (SHR), systolic blood pressure by tail-cuff; assay type: in vivo; conditions: Rattus norvegicus, po, os, 0.5% methylcellulose, measured 1, 3, 5 and 7 hours after administration
Protocol: The antihypertensive activity of the esters according to the invention was evaluated in male hypertensive rats (SHR, Wister-Kyoto strain, 15-25 weeks old). The determination of blood pressure was performed by an indirect method (M. Gerald et al., Arzneim, Forsch., 18, 1825, 1968). The animals were prewarmed in a heating chamber at a temperature of from 35° to 37° C. for a period of 15 minutes before pressure determination. The compounds tested by oral route were dissolved or suspended in a 0.5% methylcellulose solution. Controls were given only the vehicle. Systolic blood pressure and heart rate were measured 1, 3, 5 and 7 hours after drug administration by means of a tail-cuff and a pulse transducer.

[2] = LD50 in the mouse per os (method of C. S. Weil); conditions: in vivo, po
Protocol: The LD50 of the compounds according to the invention was determined in the mouse per os, according to the method described by C. S. Weil (Biometrics, 8, 249, 1952).

[3] = tested on: methacholine induced coronary spasm; test: Coronary dilating activity in anesthetized normotensive rats, antagonism of methacholine induced coronary spasm; assay type: in vivo; conditions: Rattus norvegicus, iv infusion, water:dimethylformamide 9:1
Protocol: Coronary dilating activity was evaluated in anesthetized normotensive rats (weighing about 500 g), as the ability to antagonize methacholine induced coronary spasm. Rats were instrumented for methacholine infusion into the coronary ostium, while spastic activity was detected as ST segment elevation in D2 ECG recording (K. Sakai et al., J. Pharm. Meth., 5, 325, 1981). The compounds tested by i.v. infusion were dissolved in water:dimethylformamide (9:1 by volume). Activity was detected as normalization of ECG tracing after compounds administration during methacholine infusion.

SMILES	ED25 [1]	LD50 [2]	ED50 [3]
CCCOCCOC(=O)C1=C(C)NC(C)=C(C(=O)OC(C)CN(C)CCCC(C#N)(c2ccc(OC)c(OC)c2)C(C)C)C1c1cccc(Cl)c1Cl (centres unmarked) [Compound 2404, 2-Propoxy-ethyl 2-[4-cyano-4-(3,4-dimethoxyphenyl)-5,N-dimethyl-hexylamino]-1-methylethyl 1,4-dihydro-2,6-dimethyl-4-(2,3-dichlorophenyl)-pyridine-3,5-dicarboxylate]	17.8 mg/kg	–	–
COC(=O)C1=C(C)NC(C)=C(C(=O)OCCN(C)CCCC(C#N)(c2ccc(OC)c(OC)c2)C(C)C)C1c1cccc([N+](=O)[O-])c1 (centres unmarked) [Compound 2245, Methyl 2-[4-cyano-4-(3,4-dimethoxyphenyl)-5,N-dimethyl-hexylamino]-ethyl 1,4-dihydro-2,6-dimethyl-4-(3-nitrophenyl)-pyridine-3,5-dicarboxylate]	6.8 mg/kg	278 mg/kg	0.301 mg/kg
COc1ccc(C(C#N)(CCCN(C)CC(C)OC(=O)C2=C(C)NC(C)=C(C(=O)OCC(C)C)C2c2cccc(Cl)c2Cl)C(C)C)cc1OC (centres unmarked) [Compound 2392, Isobutyl 2-[4-cyano-4-(3,4-dimethoxyphenyl)-5,N-dimethyl-hexylamino]-1-methylethyl 1,4-dihydro-2,6-dimethyl-4-(2,3-dichlorophenyl)-pyridine-3,5-dicarboxylate]	14.9 mg/kg	–	–
